Laboratory results published in patent US6355799B1, “Substituted benzene compounds, process for their preparation, and herbicidal and defoliant compositions containing them” (ISK Americas Incorporated, priority 1997, dated 2002).

Tests used:
Type in all cases: in vivo
[1] = system: redroot pigweed (Amaranthus retroflexus, AMARE); experiment: Pre-emerge test, greenhouse herbicide activity screening; details: pre-emerge, rated 14 days after application, 0 = no damage, 100 = complete death
Method in brief: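 Rating: 0–100 visual injury, 14 DAA. Application: acetone, 187 l/ha, 15–1000 g ai/ha, flat-fan track sprayer with nozzle 40–45 cm above soil or canopy. Post-emerge runs used 0.25% v/v surfactant on 2–3 leaf plants.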

[2] = system: barnyardgrass (Echinochloa crus-galli, ECHCG); experiment: as above; details: pre-emerge, rated 14 days after application, 0 = no damage, 100 = complete death
Method in brief: (§1)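 Applied at 15–1000 g ai/ha from acetone in 187 l/ha spray volume. Post-emergence applications included 0.25% v/v non-ionic surfactant and reached plants sown 8–21 days before. Pre-emergence applications were incorporated by surface watering. Efficacy or crop damage was rated on a 0–100 scale after 14 days.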

[3] = system: common ragweed (Ambrosia artemisizfolia L., AMBEL); experiment: as above; details: pre-emerge, rated 14 days after application, 0 = no damage, 100 = complete death
Method in brief: as §1

[4] = system: green foxtail (Setaria viridis, SETVI); experiment: as above; details: pre-emerge, rated 14 days after application, 0 = no damage, 100 = complete death
Method in brief: as §1

[5] = system: ivyleaf morningglory (Ipomoea hederacea, IPOHE); experiment: as above; details: pre-emerge, rated 14 days after application, 0 = no damage, 100 = complete death
Method in brief: as §1

[6] = system: johnsongrass (Sorghum halepense, SORHA); experiment: as above; details: pre-emerge, rated 14 days after application, 0 = no damage, 100 = complete death
Method in brief: as §1

[7] = system: lambsquarters (Chenopodium album, CHEAL); experiment: as above; details: pre-emerge, rated 14 days after application, 0 = no damage, 100 = complete death
Method in brief: as §1

[8] = system: large crabgrass (Digitaria sanguinalis, DIGSA); experiment: as above; details: pre-emerge, rated 14 days after application, 0 = no damage, 100 = complete death
Method in brief: as §1

[9] = system: sicklepod (Cassia obtusifolia, CASOB); experiment: as above; details: pre-emerge, rated 14 days after application, 0 = no damage, 100 = complete death
Method in brief: as §1

[10] = system: velvetleaf (Abutilon theophrasti, ABUTH); experiment: as above; details: pre-emerge, rated 14 days after application, 0 = no damage, 100 = complete death
Method in brief: as §1

[11] = system: field corn (Zea mays L., var. Dekalb 535, CORN); experiment: Pre-emerge test, crop safety; details: pre-emerge, rated 14 days after application, 0 = no damage, 100 = complete death
Method in brief: (§2)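 Herbicidal damage is scored 0 (none) to 100 (complete plant death) two weeks after a simulated field spray. Rates span 15–1000 g ai/ha, delivered in acetone at 187 l/ha. For post-emergence treatments, plants have 2–3 leaves and the spray carries 0.25% v/v non-ionic surfactant.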

[12] = system: upland rice (Oryza sp., var. Tebonnet, RICE); experiment: Pre-emerge test, crop safety; details: pre-emerge, rated 14 days after application, 0 = no damage, 100 = complete death
Method in brief: as §2

[13] = system: barnyardgrass (Echinochloa crus-galli, ECHCG); experiment: Post-emerge test, greenhouse herbicide activity screening; details: phytotoxicity rating 0-100 (0 no damage, 100 complete death), 14 days after application
Method in brief: (§3)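 Compounds in acetone were track-sprayed at 15–1000 g ai/ha: pre-emergence onto soil sown the previous day, then top-watered to incorporate and later bottom-watered; post-emergence onto 2–3 leaf plants with 0.25% v/v surfactant, bottom-watered only. Ratings on a 0–100 phytotoxicity scale were taken at day 14.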

[14] = system: common ragweed (Ambrosia artemisizfolia L., AMBEL); experiment: as above; details: phytotoxicity rating 0-100 (0 no damage, 100 complete death), 14 days after application
Method in brief: as §3

[15] = system: green foxtail (Setaria viridis, SETVI); experiment: as above; details: phytotoxicity rating 0-100 (0 no damage, 100 complete death), 14 days after application
Method in brief: as §3

[16] = system: ivyleaf morningglory (Ipomoea hederacea, IPOHE); experiment: as above; details: phytotoxicity rating 0-100 (0 no damage, 100 complete death), 14 days after application
Method in brief: as §3

[17] = system: johnsongrass (Sorghum halepense, SORHA); experiment: as above; details: phytotoxicity rating 0-100 (0 no damage, 100 complete death), 14 days after application
Method in brief: as §3

[18] = system: lambsquarters (Chenopodium album, CHEAL); experiment: as above; details: phytotoxicity rating 0-100 (0 no damage, 100 complete death), 14 days after application
Method in brief: as §3

[19] = system: large crabgrass (Digitaria sanguinalis, DIGSA); experiment: as above; details: phytotoxicity rating 0-100 (0 no damage, 100 complete death), 14 days after application
Method in brief: as §3

[20] = system: redroot pigweed (Amaranthus retroflexus, AMARE); experiment: as above; details: phytotoxicity rating 0-100 (0 no damage, 100 complete death), 14 days after application
Method in brief: as §3

[21] = system: sicklepod (Cassia obtusifolia, CASOB); experiment: as above; details: phytotoxicity rating 0-100 (0 no damage, 100 complete death), 14 days after application
Method in brief: as §3

[22] = system: velvetleaf (Abutilon theophrasti, ABUTH); experiment: as above; details: phytotoxicity rating 0-100 (0 no damage, 100 complete death), 14 days after application
Method in brief: as §3

[23] = system: field corn (Zea mays L., var. Dekalb 535, CORN); experiment: Post-emerge test, crop safety; details: phytotoxicity rating 0-100 (0 no damage, 100 complete death), 14 days after application
Method in brief: as §1

[24] = system: upland rice (Oryza sp., var. Tebonnet, RICE); experiment: Post-emerge test, crop safety; details: phytotoxicity rating 0-100 (0 no damage, 100 complete death), 14 days after application
Method in brief: as §1

Compound: COc1c(Cl)cc(F)c(-n2c(=O)c(NC(=O)C(F)(F)F)c(C(F)(F)F)n(C)c2=O)c1NC(=O)C(F)(F)F [2-12]
- Pre-emerge Herbicidal Activity AMARE (phytotoxicity rating, scale 0-100) ([1]; 63 g ai/ha): 30
- Pre-emerge Herbicidal Activity AMARE (phytotoxicity rating, scale 0-100) ([1]; 250 g ai/ha): 100
- Pre-emerge Herbicidal Activity ECHCG (phytotoxicity rating, scale 0-100) ([2]; 63 g ai/ha): 0
- Pre-emerge Herbicidal Activity ECHCG (phytotoxicity rating, scale 0-100) ([2]; 250 g ai/ha): 0
- Pre-emerge Herbicidal Activity AMBEL (phytotoxicity rating, scale 0-100) ([3]; 63 g ai/ha): 0
- Pre-emerge Herbicidal Activity AMBEL (phytotoxicity rating, scale 0-100) ([3]; 250 g ai/ha): 0
- Pre-emerge Herbicidal Activity SETVI (phytotoxicity rating, scale 0-100) ([4]; 63 g ai/ha): 0
- Pre-emerge Herbicidal Activity SETVI (phytotoxicity rating, scale 0-100) ([4]; 250 g ai/ha): 0
- Pre-emerge Herbicidal Activity IPOHE (phytotoxicity rating, scale 0-100) ([5]; 63 g ai/ha): 40
- Pre-emerge Herbicidal Activity IPOHE (phytotoxicity rating, scale 0-100) ([5]; 250 g ai/ha): 70
- Pre-emerge Herbicidal Activity SORHA (phytotoxicity rating, scale 0-100) ([6]; 63 g ai/ha): 0
- Pre-emerge Herbicidal Activity SORHA (phytotoxicity rating, scale 0-100) ([6]; 250 g ai/ha): 0
- Pre-emerge Herbicidal Activity CHEAL (phytotoxicity rating, scale 0-100) ([7]; 63 g ai/ha): 0
- Pre-emerge Herbicidal Activity CHEAL (phytotoxicity rating, scale 0-100) ([7]; 250 g ai/ha): 30
- Pre-emerge Herbicidal Activity DIGSA (phytotoxicity rating, scale 0-100) ([8]; 63 g ai/ha): 0
- Pre-emerge Herbicidal Activity DIGSA (phytotoxicity rating, scale 0-100) ([8]; 250 g ai/ha): 0
- Pre-emerge Herbicidal Activity CASOB (phytotoxicity rating, scale 0-100) ([9]; 63 g ai/ha): 30
- Pre-emerge Herbicidal Activity CASOB (phytotoxicity rating, scale 0-100) ([9]; 250 g ai/ha): 40
- Pre-emerge Herbicidal Activity ABUTH (phytotoxicity rating, scale 0-100) ([10]; 63 g ai/ha): 50
- Pre-emerge Herbicidal Activity ABUTH (phytotoxicity rating, scale 0-100) ([10]; 250 g ai/ha): 70
- Pre-emerge crop damage CORN (phytotoxicity rating, scale 0-100) ([11]; 63 g ai/ha): 0
- Pre-emerge crop damage CORN (phytotoxicity rating, scale 0-100) ([11]; 250 g ai/ha): 0
- Pre-emerge crop damage RICE (phytotoxicity rating, scale 0-100) ([12]; 63 g ai/ha): 0
- Pre-emerge crop damage RICE (phytotoxicity rating, scale 0-100) ([12]; 250 g ai/ha): 0
- Post-emerge Herbicidal Activity ECHCG ([13]; 63 g ai/ha): 0
- Post-emerge Herbicidal Activity ECHCG ([13]; 250 g ai/ha): 0
- Post-emerge Herbicidal Activity AMBEL ([14]; 63 g ai/ha): 0
- Post-emerge Herbicidal Activity AMBEL ([14]; 250 g ai/ha): 10
- Post-emerge Herbicidal Activity SETVI ([15]; 63 g ai/ha): 0
- Post-emerge Herbicidal Activity SETVI ([15]; 250 g ai/ha): 0
- Post-emerge Herbicidal Activity IPOHE ([16]; 63 g ai/ha): 0
- Post-emerge Herbicidal Activity IPOHE ([16]; 250 g ai/ha): 50
- Post-emerge Herbicidal Activity SORHA ([17]; 63 g ai/ha): 0
- Post-emerge Herbicidal Activity SORHA ([17]; 250 g ai/ha): 0
- Post-emerge Herbicidal Activity CHEAL ([18]; 63 g ai/ha): 0
- Post-emerge Herbicidal Activity CHEAL ([18]; 250 g ai/ha): 40
- Post-emerge Herbicidal Activity DIGSA ([19]; 63 g ai/ha): 0
- Post-emerge Herbicidal Activity DIGSA ([19]; 250 g ai/ha): 0
- Post-emerge Herbicidal Activity AMARE ([20]; 63 g ai/ha): 0
- Post-emerge Herbicidal Activity AMARE ([20]; 250 g ai/ha): 10
- Post-emerge Herbicidal Activity CASOB ([21]; 63 g ai/ha): 0
- Post-emerge Herbicidal Activity CASOB ([21]; 250 g ai/ha): 0
- Post-emerge Herbicidal Activity ABUTH ([22]; 63 g ai/ha): 20
- Post-emerge Herbicidal Activity ABUTH ([22]; 250 g ai/ha): 65
- Post-emerge Herbicidal Activity CORN (crop damage) ([23]; 63 g ai/ha): 0
- Post-emerge Herbicidal Activity CORN (crop damage) ([23]; 250 g ai/ha): 0
- Post-emerge Herbicidal Activity RICE (crop damage) ([24]; 63 g ai/ha): 0
- Post-emerge Herbicidal Activity RICE (crop damage) ([24]; 250 g ai/ha): 0
